{"source": "paper PMC4583449", "about": "“Characterisation of (R)-2-(2-Fluorobiphenyl-4-yl)-N-(3-Methylpyridin-2-yl)Propanamide as a Dual Fatty Acid Amide Hydrolase: Cyclooxygenase Inhibitor” (PLoS ONE, 2015)", "key": {"[1]": {"test_system": "RAW 264.7 cells", "assay": "[3H]AEA hydrolysis by intact RAW 264.7 cells", "type": "cell-based, mouse", "settings": "LPS + INF-γ-treated cells; 100 nM [3H]AEA, 60 min; URB597 1 μM, flurbiprofen and (R)-Flu-AM1 10 μM"}, "[2]": {"test_system": "RAW 264.7 cells", "assay": "Lipid profile (prostaglandins, 2-AG, AEA and related lipids) of RAW 264.7 cell extracts, UPLC-MS/MS", "type": "cell-based, mouse", "settings": "30 min, URB597 1 μM"}, "[3]": {"settings": "LPS + IFNγ 24 h, flurbiprofen 10 μM, (R)-Flu-AM1 10 μM, median (range), n = 5–6"}, "[4]": {"settings": "Treatment None (unstimulated), flurbiprofen 10 μM, (R)-Flu-AM1 10 μM, median (range), n = 5–6"}}}
{"molecule": "NC(=O)c1cccc(-c2cccc(OC(=O)NC3CCCCC3)c2)c1", "note": "[URB597, cyclohexylcarbamic acid 3′-carbamoylbiphenyl-3-yl ester, reference compound]", "values": [{"measurement": "Effect on hydrolysis of exogenous [3H]AEA by intact cells", "setting": "[1]", "result": "completely blocked"}, {"measurement": "2-AG level relative to vehicle None median", "setting": "[2]; [3]", "result": "0.90 (0.70–1.11)"}, {"measurement": "9,10,13-TriHOME level relative to vehicle None median", "setting": "[2]; [3]", "result": "1.08 (0.68–1.89)"}, {"measurement": "9,10-DiHOME level relative to vehicle None median", "setting": "[2]; [3]", "result": "0.76 (0.69–1.05)"}, {"measurement": "9,12,13-TriHOME level relative to vehicle None median", "setting": "[2]; [3]", "result": "1.08 (0.66–1.79)"}, {"measurement": "9-HODE level relative to vehicle None median", "setting": "[2]; [3]", "result": "1.11 (0.49–1.20)"}, {"measurement": "11-HETE level relative to vehicle None median", "setting": "[2]; [3]", "result": "13.0 (4.82–25.7)"}, {"measurement": "12(13)-EpOME level relative to vehicle None median", "setting": "[2]; [3]", "result": "1.24 (0.92–1.72)"}, {"measurement": "12(S)-HEPE level relative to vehicle None median", "setting": "[2]; [3]", "result": "0.59 (0.28–1.36)"}, {"measurement": "12,13-DiHOME level relative to vehicle None median", "setting": "[2]; [3]", "result": "0.93 (0.85–1.26)"}, {"measurement": "12-HETE level relative to vehicle None median", "setting": "[2]; [3]", "result": "0.61 (0.41–0.96)"}, {"measurement": "13-HODE level relative to vehicle None median", "setting": "[2]; [3]", "result": "1.16 (0.49–1.43)"}, {"measurement": "13-oxo-ODE level relative to vehicle None median", "setting": "[2]; [3]", "result": "1.52 (0.34–2.87)"}, {"measurement": "15-HETE level relative to vehicle None median", "setting": "[2]; [3]", "result": "4.58 (0.97–5.29)"}, {"measurement": "AEA level relative to vehicle None median", "setting": "[2]; [3]", "result": "1.39 (1.26–1.58)"}, {"measurement": "LEA level relative to vehicle None median", "setting": "[2]; [3]", "result": "1.06 (0.79–1.87)"}, {"measurement": "OEA level relative to vehicle None median", "setting": "[2]; [3]", "result": "0.97 (0.74–1.96)"}, {"measurement": "PEA level relative to vehicle None median", "setting": "[2]; [3]", "result": "0.97 (0.88–1.31)"}, {"measurement": "PGD2 level relative to vehicle None median", "setting": "[2]; [3]", "result": "35.1 (19.4–117)"}, {"measurement": "PGE2 level relative to vehicle None median", "setting": "[2]; [3]", "result": "10.6 (7.33–33.5)"}, {"measurement": "SEA level relative to vehicle None median", "setting": "[2]; [3]", "result": "0.79 (0.67–1.28)"}, {"measurement": "Effect on levels of AEA and related N-acylethanolamines in the cells", "setting": "[2]; LPS + INF-γ-treated, ionomycin (5 μM) treated cells, flurbiprofen and (R)-Flu-AM1 10 μM", "result": "modest effects"}, {"measurement": "2-AG level relative to vehicle None median", "setting": "[2]; [4]", "result": "1.10 (0.61–1.47)"}, {"measurement": "9,10,13-TriHOME level relative to vehicle None median", "setting": "[2]; [4]", "result": "1.13 (0.44–2.51)"}, {"measurement": "9,10-DiHOME level relative to vehicle None median", "setting": "[2]; [4]", "result": "1.10 (0.65–1.32)"}, {"measurement": "9,12,13-TriHOME level relative to vehicle None median", "setting": "[2]; [4]", "result": "1.23 (0.51–2.53)"}, {"measurement": "9-HODE level relative to vehicle None median", "setting": "[2]; [4]", "result": "1.14 (0.72–2.07)"}, {"measurement": "11-HETE level relative to vehicle None median", "setting": "[2]; [4]", "result": "1.12 (0–2.69)"}, {"measurement": "12(13)-EpOME level relative to vehicle None median", "setting": "[2]; [4]", "result": "1.07 (0.66–1.66)"}, {"measurement": "12(S)-HEPE level relative to vehicle None median", "setting": "[2]; [4]", "result": "0.59 (0–0.85)"}, {"measurement": "12,13-DiHOME level relative to vehicle None median", "setting": "[2]; [4]", "result": "1.15 (1.04–1.39)"}, {"measurement": "12-HETE level relative to vehicle None median", "setting": "[2]; [4]", "result": "0.94 (0.33–1.48)"}, {"measurement": "13-HODE level relative to vehicle None median", "setting": "[2]; [4]", "result": "1.42 (0.79–1.75)"}, {"measurement": "13-oxo-ODE level relative to vehicle None median", "setting": "[2]; [4]", "result": "1.40 (0.76–2.27)"}, {"measurement": "15-HETE level relative to vehicle None median", "setting": "[2]; [4]", "result": "1.02 (0.25–2.16)"}, {"measurement": "AEA level relative to vehicle None median", "setting": "[2]; [4]", "result": "0.85 (0.45–1.18)"}, {"measurement": "LEA level relative to vehicle None median", "setting": "[2]; [4]", "result": "0.79 (0.68–1.15)"}, {"measurement": "PEA level relative to vehicle None median", "setting": "[2]; [4]", "result": "1.07 (0.87–1.28)"}, {"measurement": "PGD2 level relative to vehicle None median", "setting": "[2]; [4]", "result": "1.37 (0.79–2.48)"}, {"measurement": "PGE2 level relative to vehicle None median", "setting": "[2]; [4]", "result": "0.98 (0.49–1.81)"}, {"measurement": "SEA level relative to vehicle None median", "setting": "[2]; [4]", "result": "0.80 (0.65–1.27)"}]}
